Assay: xn = mol fraction of the nth substance listed

[Cl-].c1ccc(C[P+](c2ccccc2)(c2ccccc2)c2ccccc2)cc1 + OCC(O)CO
101 kPa, x2 = 0.9412
Settings | electrical conductivity [S/m] | viscosity [mPa·s]
298.1 K | 0.006977 | –
307.07 K | – | 654
322.36 K | – | 238
322.96 K | 0.03314 | –
332.98 K | 0.04535 | –
338.06 K | 0.05407 | –
343.13 K | 0.0593 | –
348.08 K | 0.075 | –

CCCC[N+](CCCC)(CCCC)CCCC.[Cl-] + OC[C@@H](O)[C@@H](O)[C@H](O)[C@@H](O)CO + O
100 kPa, x1 = 0.1428, x2 = 0.1428
Settings | electrical conductivity [S/m] | viscosity [mPa·s]
293.15 K | 0.121 | 390
303.15 K | 0.189 | 201
313.15 K | 0.285 | 107
323.15 K | 0.42 | 59.8
333.15 K | 0.605 | 34.5

C[N+](C)(CCCS(=O)(=O)O)C1CCCCC1.Cc1ccc(S(=O)(=O)[O-])cc1 + CO
viscosity [mPa·s], 101 kPa
Settings | 303.15 K | 308.15 K | 313.15 K | 318.15 K | 323.15 K | 328.15 K
x1 = 0.01863 | 0.9656 | 0.8903 | 0.8173 | 0.7622 | 0.7053 | 0.6527
x1 = 0.04828 | 2.131 | 1.956 | 1.779 | 1.61 | 1.487 | 1.37
x1 = 0.1023 | 7.675 | 6.646 | 5.931 | 5.247 | 4.648 | 4.072
x1 = 0.2332 | 82.39 | 66.75 | 52.34 | 42.16 | 34.08 | 28.69
x1 = 1 | 113700 | 56930 | 32650 | 17830 | 10190 | 6293

Source: the CheMixHub ionic liquid set
